Data on three compounds can be found in ChEMBL document CHEMBL1153897, “Small molecules with potent osteogenic-inducing activity in osteoblast cells” (Bioorg Med Chem Lett, 2009).

Data set [1] can be described thus: Cytotoxicity against mouse MC3T3-E1 cells assessed as increase in apoptosis treated for 3 hrs measured after 22 hrs by caspase 3 colorimetric assay. The data set is classed as cell-based.
Data set [2] can be described thus: Cytotoxicity against mouse MC3T3-E1 cells after 4 hrs by fluorescent Alamar blue assay. The data set is classed as cell-based. Particulars: mc3t3-e1, 4 h. In general terms: The colour change of resazurin is a common sign of viable cells or microbes.
The test system of data set [3] is MC3T3-E1. Nature of the data set: Induction of osteogenesis in mouse MC3T3-E1 cells assessed as calcium level at 25 uM after 3 weeks. Type of data set: functional, cell-based. As to conditions: MC3T3-E1, 504 h.
Data set [4] can be described thus: Antiproliferative activity against mouse MC3T3-E1 cells after 24 hrs by BrdU incorporation assay. As to conditions: mc3t3-e1, 24 h. Type of data set: cell-based. (Uptake of a labelled nucleoside into DNA is a usual measure of proliferation.)
Data set [5] concerns MC3T3-E1. Nature of the data set: Induction of osteogenesis in mouse MC3T3-E1 cells assessed as osteocalcin secretion at 25 uM after 3 weeks. Type of data set: functional, cell-based. As to conditions: MC3T3-E1, 504 h.
Data set [6] relates to MC3T3-E1. Nature of the data set: Inhibition of staurosporine-induced apoptosis in mouse MC3T3-E1 cells by caspase 3 colorimetric assay. The data set is classed as functional, cell-based.
Data set [7] concerns MC3T3-E1. Nature of the data set: Induction of osteogenesis in mouse MC3T3-E1 cells assessed as alkaline phosphatase secretion at 25 uM after 3 weeks by ELISA. The data set is classed as functional, cell-based. Particulars: MC3T3-E1, 504 h. Background: An ELISA detects its analyte on a solid surface through an enzyme-linked reagent.

Activity calls are given as the source filed them. No cut-off for these calls is given here.

Take `CN[C@@H]1C[C@H]2O[C@@](C)([C@@H]1OC)n1c3ccccc3c3c4c(c5c6ccccc6n2c5c31)C(=O)NC4` [STAUROSPORINE]: the Activity entry in data set [1] was “Non-toxic”.
Consider `COc1cc2nccc(Oc3ccc4c(C(=O)Nc5ccc(C)cc5)cccc4c3)c2cc1OC`, for which the values for the Activity result in data set [2] and in data set [4] were “Non-toxic” and “Dose-dependent effect”, respectively. The results for the EC50 with MC3T3-E1 [3], with MC3T3-E1 [5] and in the data set with MC3T3-E1 [7] were 50 nM, 30 nM and 90 nM, respectively. The outcome with MC3T3-E1 [6] was inactive.
With `COc1cc2nccc(Oc3ccc4c(NC(=O)c5ccc(C)cc5)cccc4c3)c2cc1OC`, the EC50 in the data set on MC3T3-E1 [3] stood at 150 nM; in the data set on MC3T3-E1 [5], 100 nM; with MC3T3-E1 [7], 120 nM.

The term EC50 denotes the concentration needed to bring the measured effect to its halfway point.
